Data as given in article PMC9578392, “Safety, Tolerability, and Pharmacokinetics of the Novel Antiviral Agent Ensitrelvir Fumaric Acid, a SARS-CoV-2 3CL Protease Inhibitor, in Healthy Adults” (Antimicrobial Agents and Chemotherapy, 2022).

Experiment: Treatment-emergent adverse events, multiple dose (part 2)
Format: in vivo, human
Settings: for Abdominal pain, Events / Abdominal pain, n (%) / Blood creatine phosphate increased, Events / Blood creatine phosphate increased, n (%) / Blood triglyceride increased, Events / Blood triglyceride increased, n (%) / C-reactive protein increased, Events / C-reactive protein increased, n (%) / Diarrhea, Events / Diarrhea, n (%) / Dizziness, Events / Dizziness, n (%) / Feeling hot, Events / Feeling hot, n (%) / Gastrointestinal disorders, Events / Gastrointestinal disorders, n (%) / General disorders and administration site conditions, Events / General disorders and administration site conditions, n (%) / Headache, Events / Headache, n (%) / High-density lipoprotein cholesterol decreased, Events / High-density lipoprotein cholesterol decreased, n (%) / Investigations, Events / Investigations, n (%) / Nausea, Events / Nausea, n (%) / Nervous system disorders, Events / Nervous system disorders, n (%) / Oropharyngeal pain, Events / Oropharyngeal pain, n (%) / Participants with any TEAE, Events / Participants with any TEAE, n (%) / Pyrexia, Events / Pyrexia, n (%) / Rash, Events / Rash, n (%) / Respiratory, thoracic, and mediastinal disorders, Events / Respiratory, thoracic, and mediastinal disorders, n (%) / Skin and subcutaneous tissue disorders, Events / Skin and subcutaneous tissue disorders, n (%) / Somnolence, Events / Somnolence, n (%) / Vomiting, Events / Vomiting, n (%): n = 8
Protocol: In part 1, Japanese participants were randomized to receive placebo or single dose of ensitrelvir (20, 70, 250, 500, 1,000, and 2,000 mg given to cohorts A, B, C, D, E, and J, respectively), suspended in 0.5% methylcellulose, in the fasted state. Additionally, in cohort C, the effect of food on the pharmacokinetics of ensitrelvir was investigated in a 2-group, 2-period crossover design by administering placebo or ensitrelvir (250 mg) in the fasted or fed (high-fat/high-calorie) state. In part 2, Japanese participants were randomized to receive placebo or multiple doses of ensitrelvir, suspended in 0.5% methylcellulose. The multiple-dose regimens were as follows: once-daily doses of ensitrelvir 375 mg on day 1 and 125 mg on days 2 to 5 (cohort F), or 750 mg on day 1 and 250 mg on days 2 to 6 (cohort G) in the fasted state. White participants were randomized to receive placebo or multiple doses of ensitrelvir. The multiple-dose regimens were as follows: once-daily doses of ensitrelvir 375 mg on day 1 and 125 mg on days 2 to 5 (cohort H). Each cohort included 11 participants. In cohort G, the effect of ensitrelvir on the pharmacokinetics of midazolam (syrup) was evaluated in an open label self-controlled crossover design. Midazolam 2 mg alone was administered 2 days prior to initiating ensitrelvir administration (on day −2) and midazolam was coadministered on day 6 with placebo or ensitrelvir in the fasted state to participants following once-daily doses for 5 days of placebo (days 1 to 5) or ensitrelvir (750 mg on day 1 and 250 mg on days 2–5).
The nature, frequency, and severity of TEAEs were evaluated and recorded.

[1] = Cohort F 375/125 mg, Japanese, listed as ensitrelvir
[2] = Cohort G 750/250 mg + midazolam, Japanese
[3] = Cohort G 750/250 mg + midazolam, Japanese, listed as ensitrelvir
[4] = Cohort H 125 mg, white, listed as ensitrelvir

Structure (SMILES): Cn1cnc(Cn2c(=O)[nH]/c(=N\c3cc4cn(C)nc4cc3Cl)n(Cc3cc(F)c(F)cc3F)c2=O)n1 [Ensitrelvir, ensitrelvir fumaric acid]
- Abdominal pain, Events (Cohort F 375/125 mg, Japanese): 0
- Abdominal pain, n (%) (Cohort F 375/125 mg, Japanese): 0
- Blood creatine phosphate increased, Events (Cohort F 375/125 mg, Japanese): 0
- Blood creatine phosphate increased, n (%) (Cohort F 375/125 mg, Japanese): 0
- Blood triglyceride increased, Events (Cohort F 375/125 mg, Japanese): 0
- Blood triglyceride increased, n (%) (Cohort F 375/125 mg, Japanese): 0
- C-reactive protein increased, Events (Cohort F 375/125 mg, Japanese): 0
- C-reactive protein increased, n (%) (Cohort F 375/125 mg, Japanese): 0
- Diarrhea, Events (Cohort F 375/125 mg, Japanese): 5
- Diarrhea, n (%) (Cohort F 375/125 mg, Japanese): 4 (50.0)
- Dizziness, Events (Cohort F 375/125 mg, Japanese): 0
- Dizziness, n (%) (Cohort F 375/125 mg, Japanese): 0
- Feeling hot, Events (Cohort F 375/125 mg, Japanese): 0
- Feeling hot, n (%) (Cohort F 375/125 mg, Japanese): 0
- Gastrointestinal disorders, Events (Cohort F 375/125 mg, Japanese): 5
- Gastrointestinal disorders, n (%) (Cohort F 375/125 mg, Japanese): 4 (50.0)
- General disorders and administration site conditions, Events (Cohort F 375/125 mg, Japanese): 0
- General disorders and administration site conditions, n (%) (Cohort F 375/125 mg, Japanese): 0
- Headache, Events (Cohort F 375/125 mg, Japanese): 0
- Headache, n (%) (Cohort F 375/125 mg, Japanese): 0
- High-density lipoprotein cholesterol decreased, Events (Cohort F 375/125 mg, Japanese): 7
- High-density lipoprotein cholesterol decreased, n (%) (Cohort F 375/125 mg, Japanese): 7 (87.5)
- Investigations, Events (Cohort F 375/125 mg, Japanese): 7
- Investigations, n (%) (Cohort F 375/125 mg, Japanese): 7 (87.5)
- Nausea, Events (Cohort F 375/125 mg, Japanese): 0
- Nausea, n (%) (Cohort F 375/125 mg, Japanese): 0
- Nervous system disorders, Events (Cohort F 375/125 mg, Japanese): 0
- Nervous system disorders, n (%) (Cohort F 375/125 mg, Japanese): 0
- Oropharyngeal pain, Events (Cohort F 375/125 mg, Japanese): 0
- Oropharyngeal pain, n (%) (Cohort F 375/125 mg, Japanese): 0
- Participants with any TEAE, Events (Cohort F 375/125 mg, Japanese): 12
- Participants with any TEAE, n (%) (Cohort F 375/125 mg, Japanese): 7 (87.5)
- Pyrexia, Events (Cohort F 375/125 mg, Japanese): 0
- Pyrexia, n (%) (Cohort F 375/125 mg, Japanese): 0
- Rash, Events (Cohort F 375/125 mg, Japanese): 0
- Rash, n (%) (Cohort F 375/125 mg, Japanese): 0
- Respiratory, thoracic, and mediastinal disorders, Events (Cohort F 375/125 mg, Japanese): 0
- Respiratory, thoracic, and mediastinal disorders, n (%) (Cohort F 375/125 mg, Japanese): 0
- Skin and subcutaneous tissue disorders, Events (Cohort F 375/125 mg, Japanese): 0
- Skin and subcutaneous tissue disorders, n (%) (Cohort F 375/125 mg, Japanese): 0
- Somnolence, Events (Cohort F 375/125 mg, Japanese): 0
- Somnolence, n (%) (Cohort F 375/125 mg, Japanese): 0
- Vomiting, Events (Cohort F 375/125 mg, Japanese): 0
- Vomiting, n (%) (Cohort F 375/125 mg, Japanese): 0
- Diarrhea, n (%) [1]: 4/8
- High-density lipoprotein cholesterol decreased, n (%) [1]: 7/8
- Abdominal pain, Events [2]: 0
- Abdominal pain, n (%) [2]: 0
- Blood creatine phosphate increased, Events [2]: 1
- Blood creatine phosphate increased, n (%) [2]: 1 (12.5)
- Blood triglyceride increased, Events [2]: 2
- Blood triglyceride increased, n (%) [2]: 2 (25.0)
- C-reactive protein increased, Events [2]: 1
- C-reactive protein increased, n (%) [2]: 1 (12.5)
- Diarrhea, Events [2]: 6
- Diarrhea, n (%) [2]: 4 (50.0)
- Dizziness, Events [2]: 1
- Dizziness, n (%) [2]: 1 (12.5)
- Feeling hot, Events [2]: 1
- Feeling hot, n (%) [2]: 1 (12.5)
- Gastrointestinal disorders, Events [2]: 8
- Gastrointestinal disorders, n (%) [2]: 4 (50.0)
- General disorders and administration site conditions, Events [2]: 2
- General disorders and administration site conditions, n (%) [2]: 2 (25.0)
- Headache, Events [2]: 6
- Headache, n (%) [2]: 4 (50.0)
- High-density lipoprotein cholesterol decreased, Events [2]: 7
- High-density lipoprotein cholesterol decreased, n (%) [2]: 7 (87.5)
- Investigations, Events [2]: 11
- Investigations, n (%) [2]: 7 (87.5)
- Nausea, Events [2]: 1
- Nausea, n (%) [2]: 1 (12.5)
- Nervous system disorders, Events [2]: 11
- Nervous system disorders, n (%) [2]: 5 (62.5)
- Oropharyngeal pain, Events [2]: 0
- Oropharyngeal pain, n (%) [2]: 0
- Participants with any TEAE, Events [2]: 33
- Participants with any TEAE, n (%) [2]: 8 (100)
- Pyrexia, Events [2]: 1
- Pyrexia, n (%) [2]: 1 (12.5)
- Rash, Events [2]: 1
- Rash, n (%) [2]: 1 (12.5)
- Respiratory, thoracic, and mediastinal disorders, Events [2]: 0
- Respiratory, thoracic, and mediastinal disorders, n (%) [2]: 0
- Skin and subcutaneous tissue disorders, Events [2]: 1
- Skin and subcutaneous tissue disorders, n (%) [2]: 1 (12.5)
- Somnolence, Events [2]: 4
- Somnolence, n (%) [2]: 3 (37.5)
- Vomiting, Events [2]: 1
- Vomiting, n (%) [2]: 1 (12.5)
- Diarrhea, n (%) [3]: 4/8
- Headache, n (%) [3]: 4/8
- High-density lipoprotein cholesterol decreased, n (%) [3]: 7/8
- Somnolence, n (%) [3]: 3/8
- Abdominal pain, Events (Cohort H 125 mg, white): 1
- Abdominal pain, n (%) (Cohort H 125 mg, white): 1 (12.5)
- Blood creatine phosphate increased, Events (Cohort H 125 mg, white): 0
- Blood creatine phosphate increased, n (%) (Cohort H 125 mg, white): 0
- Blood triglyceride increased, Events (Cohort H 125 mg, white): 0
- Blood triglyceride increased, n (%) (Cohort H 125 mg, white): 0
- C-reactive protein increased, Events (Cohort H 125 mg, white): 0
- C-reactive protein increased, n (%) (Cohort H 125 mg, white): 0
- Diarrhea, Events (Cohort H 125 mg, white): 6
- Dizziness, Events (Cohort H 125 mg, white): 0
- Dizziness, n (%) (Cohort H 125 mg, white): 0
- Feeling hot, Events (Cohort H 125 mg, white): 0
- Feeling hot, n (%) (Cohort H 125 mg, white): 0
- Gastrointestinal disorders, Events (Cohort H 125 mg, white): 7
- Gastrointestinal disorders, n (%) (Cohort H 125 mg, white): 4 (50.0)
- General disorders and administration site conditions, Events (Cohort H 125 mg, white): 0
- General disorders and administration site conditions, n (%) (Cohort H 125 mg, white): 0
- Headache, Events (Cohort H 125 mg, white): 4
- Headache, n (%) (Cohort H 125 mg, white): 2 (25.0)
- High-density lipoprotein cholesterol decreased, Events (Cohort H 125 mg, white): 7
- High-density lipoprotein cholesterol decreased, n (%) (Cohort H 125 mg, white): 7 (87.5)
- Investigations, Events (Cohort H 125 mg, white): 7
- Investigations, n (%) (Cohort H 125 mg, white): 7 (87.5)
- Nausea, Events (Cohort H 125 mg, white): 0
- Nausea, n (%) (Cohort H 125 mg, white): 0
- Nervous system disorders, Events (Cohort H 125 mg, white): 4
- Nervous system disorders, n (%) (Cohort H 125 mg, white): 2 (25.0)
- Oropharyngeal pain, Events (Cohort H 125 mg, white): 1
- Oropharyngeal pain, n (%) (Cohort H 125 mg, white): 1 (12.5)
- Participants with any TEAE, Events (Cohort H 125 mg, white): 19
- Participants with any TEAE, n (%) (Cohort H 125 mg, white): 8 (100)
- Pyrexia, Events (Cohort H 125 mg, white): 0
- Pyrexia, n (%) (Cohort H 125 mg, white): 0
- Rash, Events (Cohort H 125 mg, white): 0
- Rash, n (%) (Cohort H 125 mg, white): 0
- Respiratory, thoracic, and mediastinal disorders, Events (Cohort H 125 mg, white): 1
- Respiratory, thoracic, and mediastinal disorders, n (%) (Cohort H 125 mg, white): 1 (12.5)
- Skin and subcutaneous tissue disorders, Events (Cohort H 125 mg, white): 0
- Skin and subcutaneous tissue disorders, n (%) (Cohort H 125 mg, white): 0
- Somnolence, Events (Cohort H 125 mg, white): 0
- Somnolence, n (%) (Cohort H 125 mg, white): 0
- Vomiting, Events (Cohort H 125 mg, white): 0
- Vomiting, n (%) (Cohort H 125 mg, white): 0
- Diarrhea, n (%) [4]: 4/8
- Headache, n (%) [4]: 2/8
- High-density lipoprotein cholesterol decreased, n (%) [4]: 7/8
- course of the decrease in HDL-C levels (single- and multiple-dose administration): transient and generally reverted to the baseline values
